Converted amounts (≈) assume the structure as drawn.
Legend:
[1] = Binding affinity to iron assessed as pFe3+ by spectrophotometric method
[2] = Octanol/water partition coefficient, log P of the compound shaken for 45 mins and measured after 15 mins; format: physicochemical; conditions: time 60 min
Acetylcholinesterase [3] = target: T1, Acetylcholinesterase (Electrophorus electricus, UniProt O42275); assay: Inhibition of electric eel AChE using acetylthiocholine iodide as substrate preincubated for 15 mins followed by substrate addition and measured for 5 mins by Ellman's reagent based UV-Vis spectrophotometric method
T1 sequence (O42275 whole entry): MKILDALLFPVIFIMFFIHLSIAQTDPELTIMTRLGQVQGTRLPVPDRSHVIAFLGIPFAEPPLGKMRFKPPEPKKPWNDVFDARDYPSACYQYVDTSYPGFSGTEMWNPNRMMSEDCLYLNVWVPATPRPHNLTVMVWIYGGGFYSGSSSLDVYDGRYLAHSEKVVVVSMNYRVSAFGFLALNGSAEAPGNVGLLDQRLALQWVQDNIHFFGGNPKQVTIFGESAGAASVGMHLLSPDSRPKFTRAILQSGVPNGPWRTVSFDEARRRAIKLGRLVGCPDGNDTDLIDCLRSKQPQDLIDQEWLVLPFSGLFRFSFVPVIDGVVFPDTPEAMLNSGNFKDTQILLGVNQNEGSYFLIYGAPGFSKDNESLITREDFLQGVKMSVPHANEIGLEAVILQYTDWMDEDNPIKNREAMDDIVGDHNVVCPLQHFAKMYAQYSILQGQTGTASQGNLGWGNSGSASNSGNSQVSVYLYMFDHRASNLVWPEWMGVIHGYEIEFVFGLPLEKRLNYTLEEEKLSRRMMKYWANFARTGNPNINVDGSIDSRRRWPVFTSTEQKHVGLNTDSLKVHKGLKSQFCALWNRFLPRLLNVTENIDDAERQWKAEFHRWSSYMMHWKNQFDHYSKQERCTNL

[4] = Antioxidant activity assessed as DPPH radical scavenging activity incubated for 30 mins by absorbance method; format: functional
[5] = Binding affinity to iron assessed as pFe3+ at pH 7.4 by spectrophotometric method
[6] = target: T2, Amyloid-beta precursor protein (Homo sapiens, UniProt P05067); assay: Inhibition of self-induced amyloid beta (1 to 42) (unknown origin) aggregation measured after 24 hrs by ThT fluorescence assay relative to control; conditions: concentration not given here
T2 sequence (P05067 whole entry): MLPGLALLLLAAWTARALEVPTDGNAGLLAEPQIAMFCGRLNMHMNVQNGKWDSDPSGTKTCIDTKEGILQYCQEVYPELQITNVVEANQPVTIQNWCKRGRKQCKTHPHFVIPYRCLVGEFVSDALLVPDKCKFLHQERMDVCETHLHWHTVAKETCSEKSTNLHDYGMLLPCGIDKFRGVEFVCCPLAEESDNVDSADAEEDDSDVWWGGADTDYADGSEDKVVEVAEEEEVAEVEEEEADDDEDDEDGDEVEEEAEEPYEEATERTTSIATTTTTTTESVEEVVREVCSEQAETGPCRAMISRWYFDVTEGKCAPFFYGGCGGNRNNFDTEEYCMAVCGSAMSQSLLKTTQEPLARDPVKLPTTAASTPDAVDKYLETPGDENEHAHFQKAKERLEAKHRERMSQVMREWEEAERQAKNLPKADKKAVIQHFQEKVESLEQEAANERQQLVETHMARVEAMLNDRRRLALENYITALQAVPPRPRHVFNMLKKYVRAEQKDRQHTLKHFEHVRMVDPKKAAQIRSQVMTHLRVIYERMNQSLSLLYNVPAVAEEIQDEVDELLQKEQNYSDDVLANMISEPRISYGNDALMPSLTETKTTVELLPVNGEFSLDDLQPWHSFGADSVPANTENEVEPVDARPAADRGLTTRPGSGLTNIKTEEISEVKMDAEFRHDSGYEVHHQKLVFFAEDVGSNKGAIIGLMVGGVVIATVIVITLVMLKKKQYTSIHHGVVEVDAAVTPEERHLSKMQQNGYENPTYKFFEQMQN

Bacillus subtilis = assay: Antibacterial activity against Bacillus subtilis incubated for 2 hrs followed by sterilized TSB addition and measured after 24 hrs by visual inspection; format: functional; conditions: time 26 hrs
Escherichia coli = assay: Antibacterial activity against Escherichia coli incubated for 2 hrs followed by sterilized TSB addition and measured after 24 hrs by visual inspection; format: functional; conditions: time 26 hrs
Staphylococcus aureus [7] = assay: Antibacterial activity against Staphylococcus aureus incubated for 2 hrs followed by sterilized TSB addition and measured after 24 hrs by visual inspection; format: functional; conditions: time 26 hrs
Pseudomonas aeruginosa = assay: Antibacterial activity against Pseudomonas aeruginosa incubated for 2 hrs followed by sterilized TSB addition and measured after 24 hrs by visual inspection; format: functional; conditions: time 26 hrs
Acetylcholinesterase [8] = target: T1, Acetylcholinesterase; assay: Inhibition of electric eel AChE using acetylthiocholine iodide as substrate preincubated for 15 mins followed by substrate addition and measured for 5 mins by Ellman's method
Staphylococcus aureus [9] = assay: Antibacterial activity against Staphylococcus aureus ATCC 25913 incubated for 20 hrs by CLSI-based broth microdilution method; format: functional
[10] = system: Staphylococcus epidermidis; assay: Antibacterial activity against Staphylococcus epidermidis incubated for 20 hrs by CLSI-based broth microdilution method; format: functional
Enterococcus faecalis = assay: Antibacterial activity against Enterococcus faecalis incubated for 20 hrs by CLSI-based broth microdilution method; format: functional
Enterococcus faecium = assay: Antibacterial activity against Enterococcus faecium BM4105 incubated for 20 hrs by CLSI-based broth microdilution method; format: functional
Plasmodium falciparum [11] = assay: Antiplasmodial activity against chloroquine-resistant Plasmodium falciparum Dd2 incubated for 48 hrs by parasite lactate dehydrogenase assay; format: functional, organism-based; conditions: Dd2, 48 h
Plasmodium falciparum [12] = assay: Antiplasmodial activity against chloroquine-resistant Plasmodium falciparum K1 incubated for 48 hrs by parasite lactate dehydrogenase assay; format: functional, organism-based; conditions: K1, 48 h
Plasmodium falciparum [13] = assay: Antiplasmodial activity against chloroquine-sensitive Plasmodium falciparum D10 incubated for 48 hrs by parasite lactate dehydrogenase assay; format: functional, organism-based; conditions: D10, 48 h
Plasmodium falciparum [14] = assay: Antiplasmodial activity against chloroquine-sensitive Plasmodium falciparum 3D7 incubated for 48 hrs by parasite lactate dehydrogenase assay; format: functional, organism-based; conditions: 3D7, 48 h
Plasmodium falciparum [15] = assay: Antiplasmodial activity against Plasmodium falciparum NF54 treated for 96 hrs with replacement of growth medium once a day for 4 days; format: functional, organism-based; conditions: NF54, 96 h
[16] = Binding affinity to Fe3+ assessed as binding constant
[17] = Binding affinity to iron assessed as pFe3+
Staphylococcus aureus [18] = assay: Protection against Staphylococcus aureus Smith infected in sc dosed mouse administered 1 hr post infection and measured at 7 days post infection by Litchfield-Wilcoxon method; format: functional; conditions: 168 h, time 7 day
[19] = Binding affinity to iron assessed as pFe3+ at pH 7.4
Rattus norvegicus [20] = assay: Iron scavenging activity in 59Fe-ferritin-loaded Wistar rat assessed as iron mobilization efficacy at 450 umol/kg, po dosed 1 hr after 59Fe-ferritin injection and measured 24 hrs after 59Fe-ferritin injection by gamma counting method relative to control; format: functional; conditions: dose 450 µmol/kg
[21] = system: Human immunodeficiency virus 1; assay: Antiviral activity against HIV1 BaL infected in human peripheral blood lymphocytes assessed as reduction in p24 production incubated for 5 days by ELISA; format: functional, organism-based; conditions: Human immunodeficiency virus 1, BaL, PBL, 120 h
[22] = target: T2, Amyloid-beta precursor protein; assay: Inhibition of human amyloid beta (1 to 42) aggregation incubated for 24 hrs by ThT fluorescence assay; conditions: concentration not given here
Acetylcholinesterase [23] = target: Acetylcholinesterase (Torpedo californica, UniProt P04058); assay: Inhibition of Torpedo californica AChE using acetylthiocholine iodide as substrate preincubated for 15 mins followed by substrate addition and measured for 5 mins; parameters: species or system Tetronarce californica
Chain of Acetylcholinesterase (Torpedo californica, UniProt P04058) (P04058 whole entry): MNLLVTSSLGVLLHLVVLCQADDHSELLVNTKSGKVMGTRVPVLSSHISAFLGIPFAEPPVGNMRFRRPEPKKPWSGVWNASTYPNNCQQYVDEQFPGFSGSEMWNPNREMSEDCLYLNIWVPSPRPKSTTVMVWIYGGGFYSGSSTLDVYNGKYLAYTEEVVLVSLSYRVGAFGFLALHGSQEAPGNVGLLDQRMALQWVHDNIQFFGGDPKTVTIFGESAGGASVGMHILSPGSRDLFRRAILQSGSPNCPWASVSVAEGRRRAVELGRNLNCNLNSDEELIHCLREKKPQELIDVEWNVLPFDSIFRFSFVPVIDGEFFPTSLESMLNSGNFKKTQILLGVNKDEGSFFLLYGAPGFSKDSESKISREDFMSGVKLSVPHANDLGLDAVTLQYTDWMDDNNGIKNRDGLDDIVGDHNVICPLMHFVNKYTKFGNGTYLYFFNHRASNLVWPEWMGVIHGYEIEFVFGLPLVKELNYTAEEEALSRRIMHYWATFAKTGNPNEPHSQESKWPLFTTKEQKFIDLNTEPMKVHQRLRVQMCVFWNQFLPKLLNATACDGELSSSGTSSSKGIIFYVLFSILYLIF

Rattus norvegicus [24] = assay: Iron scavenging activity in 59Fe-ferritin-loaded rat assessed as iron mobilization efficacy at 450 umol/kg, po dosed 1 hr after 59Fe-ferritin injection and measured 24 hrs after 59Fe-ferritin injection by gamma counting method relative to control; format: functional; conditions: dose 450 µmol/kg; time 23 hrs
[25] = Binding affinity to iron assessed as pFe3+ at pH 7.45
Staphylococcus aureus [26] = assay: Antibacterial activity against Staphylococcus aureus incubated for 2 hrs followed by sterilized water addition and measured after 24 hrs by visual inspection; format: functional; conditions: time 26 hrs
Providencia stuartii = assay: Antibacterial activity against Providencia stuartii incubated for 24 hrs by visual inspection; format: functional

CC(=O)NCCCCCCn1ccc(=O)c(O)c1C
Activity [1]: 20.3
logP at 1 h [2]: 0.53

Cc1c(O)c(=O)ccn1CCCC(=O)N1CCCC1c1nc2ccccc2s1 (configuration not stated)
IC50 (Acetylcholinesterase [3]): 14.7 µM
IC50 [4]: 148 µM
Activity [5]: 19.2
inhibition [6]: 59.3%

CCCC(=O)NC(CCCNC(=O)c1c(O)c(=O)ccn1CCO)(CCCNC(=O)c1c(O)c(=O)ccn1CCO)CCCNC(=O)c1c(O)c(=O)ccn1CCO
MIC (Bacillus subtilis): 8 µg/mL (≈ 9.81 µM)
MIC (Escherichia coli): 8 µg/mL (≈ 9.81 µM)
MIC (Staphylococcus aureus [7]): 8 µg/mL (≈ 9.81 µM)
MIC (Pseudomonas aeruginosa): 16 µg/mL (≈ 19.6 µM)

Cc1c(O)c(=O)ccn1CC(=O)NCCNc1c2c(nc3cc(Cl)ccc13)CCCC2
IC50 (Acetylcholinesterase [8]): 0.64 µM

CCN(CC)c1ccc2c(-c3ccc(C(=O)NCc4c(O)c(=O)cc(C)n4C)cc3)c3ccc(=[N+](CC)CC)cc-3oc2c1
MIC (Staphylococcus aureus [9]): 11 µM
MIC [10]: 11 µM
MIC (Enterococcus faecalis): 11 µM
MIC (Enterococcus faecium): 11 µM

O=c1cc(CNCCCCCCNc2ccnc3cc(Cl)ccc23)n(C2CC2)cc1OCc1ccccc1
IC50 (Plasmodium falciparum [11]): 0.463 µM
IC50 (Plasmodium falciparum [12]): 0.505 µM
IC50 (Plasmodium falciparum [13]): 0.047 µM
IC50 (Plasmodium falciparum [14]): 0.064 µM

C=CCN1C(c2ccccn2)CC(=O)C(C(=O)OC)C1c1ccccn1 (configuration not stated)
IC50 (Plasmodium falciparum [15]): 1.4 µM

O=C(NCCN(CCNC(=O)c1[nH]ccc(=O)c1O)CCNC(=O)c1[nH]ccc(=O)c1O)c1[nH]ccc(=O)c1O
log Ks [16]: 30.7
Activity [17]: 30.5

Cc1c(O)c(=O)ccn1CC(=O)NCCCCNc1c2c(nc3cc(Cl)ccc13)CCCC2
IC50 (Acetylcholinesterase [8]): 0.64 µM

CO/N=C(\C(=O)N[C@@H]1C(=O)N2C(C(=O)[O-])=C(C[n+]3cccc4c3CCC4)CS[C@H]12)c1csc(N)n1 [CEFPIROME]
ED50 (Staphylococcus aureus [18]): 1.5 mg/kg

Cc1c(OCc2ccccc2)c(=O)ccn1-c1ccc(CC(=O)NCc2ccc(-c3nc4ccccc4s3)cc2)cc1
IC50 (Acetylcholinesterase [3]): 13.8 µM
IC50 [4]: > 1000 µM
inhibition [6]: 68.9%

CNC(=O)c1[nH]c(C)cc(=O)c1O
Activity [19]: 22.8
Efficacy (Rattus norvegicus [20]): 50.1%
IC50 [21]: 20 µM

O=c1cc(CO)[nH]cc1O
Activity [17]: 22

CCCCn1ccc(=O)c(O)c1C(=O)NCCCC(CCCNC(=O)c1c(O)c(=O)ccn1CCCC)(CCCNC(=O)c1c(O)c(=O)ccn1CCCC)NC(=O)[C@@H](N)CC(C)C
MIC (Pseudomonas aeruginosa): 32 µg/mL (≈ 35.7 µM)

CCCCCCn1ccc(=O)c(O)c1C(=O)NCCCC(CCCNC(=O)c1c(O)c(=O)ccn1CCCCCC)(CCCNC(=O)c1c(O)c(=O)ccn1CCCCCC)NC(=O)CCC
MIC (Pseudomonas aeruginosa): 32 µg/mL (≈ 34.2 µM)

Cc1c(O)c(=O)ccn1CCCC(=O)NCc1ccc(Cc2nc3ccccc3s2)cc1
Activity [5]: 19.4

COc1cccc2cc(C(=O)NCCn3ccc(=O)c(OCc4ccccc4)c3C)oc12
EC50 [4]: > 1000 µM
inhibition [22]: 36.1%
IC50 (Acetylcholinesterase [23]): 76 µM

CN(C)C(=O)c1cccc(O)c1O
Activity [17]: 15

CNC(=O)c1c(O)c(=O)cc(C)n1C
Activity [19]: 21.7
Efficacy (Rattus norvegicus [20]): 58.7%
IC50 [21]: 33.3 µM

CCn1ccc(=O)c(O)c1C(C)O (configuration not stated)
Efficacy (Rattus norvegicus [24]): 54.5%
Activity [25]: 21.4

CCCCn1ccc(=O)c(O)c1C(=O)NCCCC(CCCNC(=O)c1c(O)c(=O)ccn1CCCC)(CCCNC(=O)c1c(O)c(=O)ccn1CCCC)NC(=O)CCC
MIC (Pseudomonas aeruginosa): 32 µg/mL (≈ 37.6 µM)

COCCOCCOCC(=O)NC(CCC(=O)NCc1c(O)c(=O)cc(C)n1C)(CCC(=O)NCc1c(O)c(=O)cc(C)n1C)CCC(=O)NCc1c(O)c(=O)cc(C)n1C
MIC (Staphylococcus aureus [26]): 240 µg/mL (≈ 280 µM)
MIC (Providencia stuartii): 320 µg/mL (≈ 373 µM)

CCCC(=O)NC(CCCNC(=O)c1c(O)c(=O)ccn1CCOC)(CCCNC(=O)c1c(O)c(=O)ccn1CCOC)CCCNC(=O)c1c(O)c(=O)ccn1CCOC
MIC (Pseudomonas aeruginosa): 32 µg/mL (≈ 37.3 µM)
